Source: the supplement of paper PMC10307832

Legend:
Assay in all cases: relative viability (nuclei count vs DMSO), 5 days (fraction); higher = more cells survive
BEN = test system: BEN
Outline: (§1)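 Cells from lung cancer lines were seeded into 1536-well plates and, one day later, dosed by pin tool. Treatments were either a single drug or a fixed dose of an anchor drug with five library-drug doses (not always all listed) in √10 steps. After 5 days, nuclei were stained in a one-step fixation (final 0.05% Triton X-100, 1% formaldehyde, 1 ug/ml Hoechst) and counted on 4× images, and relative viability is the treated-to-vehicle nuclei ratio, as the median of duplicate plates.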

EKVX = test system: EKVX
Outline: as §1

HARA = test system: HARA
Outline: as §1

HCC-366 = test system: HCC-366
Outline: as §1

HCC-44 = test system: HCC-44
Outline: as §1

HCC-827 = test system: HCC-827
Outline: as §1

LC-2-ad = test system: LC-2-ad
Outline: as §1

LOU-NH91 = test system: LOU-NH91
Outline: as §1

NCI-H1355 = test system: NCI-H1355
Outline: as §1

NCI-H1395 = test system: NCI-H1395
Outline: as §1

NCI-H1437 = test system: NCI-H1437
Outline: as §1

NCI-H1734 = test system: NCI-H1734
Outline: as §1

NCI-H1792 = test system: NCI-H1792
Outline: as §1

NCI-H2009 = test system: NCI-H2009
Outline: as §1

NCI-H2087 = test system: NCI-H2087
Outline: as §1

NCI-H2170 = test system: NCI-H2170
Outline: as §1

NCI-H2342 = test system: NCI-H2342
Outline: as §1

NCI-H2405 = test system: NCI-H2405
Outline: as §1

NCI-H596 = test system: NCI-H596
Outline: as §1

NCI-H647 = test system: NCI-H647
Outline: as §1

NCI-H661 = test system: NCI-H661
Outline: as §1

SK-LU-1 = test system: SK-LU-1
Outline: as §1

SK-MES-1 = test system: SK-MES-1
Outline: as §1

With C[C@@H]1CN(CC(=O)Nc2ccc3c(c2)Cc2cccc(-c4cc(=O)cc(N5CCOCC5)o4)c2S3)C[C@H](C)O1 + Nc1ncn([C@H]2C[C@H](O)[C@@H](CO)O2)c(=O)n1 [Decitabine] (partner 2 µM) the relative viability (BEN; first compound 0.04 µM) was 0.702, the relative viability (BEN; first compound 0.1265 µM) was 0.696 and the relative viability (BEN; first compound 0.4 µM) was 0.81. For the same compound, the relative viability (BEN; first compound 4 µM) was 0.735, the relative viability (EKVX; first compound 0.04 µM) was 0.302 and the relative viability (EKVX; first compound 0.1265 µM) was 0.368. The relative viability (EKVX; first compound 0.4 µM) was 0.303, the relative viability (EKVX; first compound 4 µM) was 0.317 and the relative viability (HARA; first compound 0.04 µM) was 0.594. The relative viability (HARA; first compound 0.1265 µM) was 0.522, the relative viability (HARA; first compound 0.4 µM) was 0.454 and the relative viability (HARA; first compound 4 µM) was 0.717. For the same compound, the relative viability (HCC-366; first compound 0.04 µM) was 0.347, the relative viability (HCC-366; first compound 0.1265 µM) was 0.348 and the relative viability (HCC-366; first compound 0.4 µM) was 0.326. The relative viability (HCC-366; first compound 4 µM) was 0.326, the relative viability (HCC-44; first compound 0.04 µM) was 0.898 and the relative viability (HCC-44; first compound 0.1265 µM) was 0.93. For the same compound, the relative viability (HCC-44; first compound 0.4 µM) was 0.972, the relative viability (HCC-44; first compound 4 µM) was 0.953 and the relative viability (HCC-827; first compound 0.04 µM) was 0.355. The relative viability (HCC-827; first compound 0.1265 µM) was 0.362, the relative viability (HCC-827; first compound 0.4 µM) was 0.418 and the relative viability (HCC-827; first compound 4 µM) was 0.382. For the same compound, the relative viability (LC-2-ad; first compound 0.04 µM) was 0.939, the relative viability (LC-2-ad; first compound 0.1265 µM) was 0.786 and the relative viability (LC-2-ad; first compound 0.4 µM) was 0.792. It also gave a relative viability (LC-2-ad; first compound 4 µM) of 0.628, a relative viability (LOU-NH91; first compound 0.04 µM) of 0.857 and a relative viability (LOU-NH91; first compound 0.1265 µM) of 0.819. It also gave a relative viability (LOU-NH91; first compound 0.4 µM) of 0.81, a relative viability (LOU-NH91; first compound 4 µM) of 0.749 and a relative viability (NCI-H1355; first compound 0.04 µM) of 0.389. For the same compound, the relative viability (NCI-H1355; first compound 0.1265 µM) was 0.338, the relative viability (NCI-H1355; first compound 0.4 µM) was 0.363 and the relative viability (NCI-H1355; first compound 4 µM) was 0.375. It also gave a relative viability (NCI-H1395; first compound 0.1265 µM) of 0.763, a relative viability (NCI-H1395; first compound 0.4 µM) of 0.653 and a relative viability (NCI-H1395; first compound 4 µM) of 0.752. For the same compound, the relative viability (NCI-H1437; first compound 0.04 µM) was 0.648, the relative viability (NCI-H1437; first compound 0.1265 µM) was 0.591 and the relative viability (NCI-H1437; first compound 0.4 µM) was 0.625. For the same compound, the relative viability (NCI-H1437; first compound 4 µM) was 0.608, the relative viability (NCI-H1734; first compound 0.04 µM) was 0.567 and the relative viability (NCI-H1734; first compound 0.1265 µM) was 0.507. The relative viability (NCI-H1734; first compound 0.4 µM) was 0.474, the relative viability (NCI-H1734; first compound 4 µM) was 0.574 and the relative viability (NCI-H1792; first compound 0.04 µM) was 0.627. The relative viability (NCI-H1792; first compound 0.1265 µM) was 0.51, the relative viability (NCI-H1792; first compound 0.4 µM) was 0.542 and the relative viability (NCI-H1792; first compound 4 µM) was 0.441. It also gave a relative viability (NCI-H2009; first compound 0.04 µM) of 0.31, a relative viability (NCI-H2009; first compound 0.1265 µM) of 0.363 and a relative viability (NCI-H2009; first compound 0.4 µM) of 0.383. For the same compound, the relative viability (NCI-H2009; first compound 4 µM) was 0.34, the relative viability (NCI-H2087; first compound 0.04 µM) was 0.306 and the relative viability (NCI-H2087; first compound 0.1265 µM) was 0.336. It also gave a relative viability (NCI-H2087; first compound 0.4 µM) of 0.267, a relative viability (NCI-H2087; first compound 4 µM) of 0.254 and a relative viability (NCI-H2170; first compound 0.04 µM) of 0.492. For the same compound, the relative viability (NCI-H2170; first compound 0.1265 µM) was 0.459, the relative viability (NCI-H2170; first compound 0.4 µM) was 0.508 and the relative viability (NCI-H2170; first compound 4 µM) was 0.464. The relative viability (NCI-H2342; first compound 0.04 µM) was 0.76, the relative viability (NCI-H2342; first compound 0.1265 µM) was 0.779 and the relative viability (NCI-H2342; first compound 0.4 µM) was 0.71. For the same compound, the relative viability (NCI-H2342; first compound 4 µM) was 0.704, the relative viability (NCI-H2405; first compound 0.04 µM) was 0.878 and the relative viability (NCI-H2405; first compound 0.1265 µM) was 0.814. The relative viability (NCI-H2405; first compound 0.4 µM) was 0.728, the relative viability (NCI-H2405; first compound 4 µM) was 0.803 and the relative viability (NCI-H596; first compound 0.04 µM) was 1.01. It also gave a relative viability (NCI-H596; first compound 0.1265 µM) of 1.11, a relative viability (NCI-H596; first compound 0.4 µM) of 1.11 and a relative viability (NCI-H596; first compound 4 µM) of 0.798. For the same compound, the relative viability (NCI-H647; first compound 0.04 µM) was 0.442, the relative viability (NCI-H647; first compound 0.1265 µM) was 0.376 and the relative viability (NCI-H647; first compound 0.4 µM) was 0.369. For the same compound, the relative viability (NCI-H647; first compound 4 µM) was 0.346, the relative viability (NCI-H661; first compound 0.04 µM) was 0.496 and the relative viability (NCI-H661; first compound 0.1265 µM) was 0.534. For the same compound, the relative viability (NCI-H661; first compound 0.4 µM) was 0.623, the relative viability (NCI-H661; first compound 4 µM) was 0.65 and the relative viability (SK-LU-1; first compound 0.04 µM) was 0.693. The relative viability (SK-LU-1; first compound 0.1265 µM) was 0.719, the relative viability (SK-LU-1; first compound 0.4 µM) was 0.646 and the relative viability (SK-LU-1; first compound 4 µM) was 0.59. The relative viability (SK-MES-1; first compound 0.04 µM) was 0.356, the relative viability (SK-MES-1; first compound 0.1265 µM) was 0.368 and the relative viability (SK-MES-1; first compound 0.4 µM) was 0.433. For the same compound, the relative viability (SK-MES-1; first compound 4 µM) was 0.446.
